CC(C)(C)OC(=O)N[C@@H](CC(N)=O)C(=O)O
solubility (mole fraction) (in 2-butanone, 283.15 K): 0.000534 | solubility (mole fraction) (in 2-butanone, 288.15 K): 0.000543 | solubility (mole fraction) (in 2-butanone, 293.15 K): 0.000641 | solubility (mole fraction) (in 2-butanone, 298.15 K): 0.000673 | solubility (mole fraction) (in 2-butanone, 303.15 K): 0.000804 | solubility (mole fraction) (in 2-butanone, 308.15 K): 0.000879 | solubility (mole fraction) (in 2-butanone, 313.15 K): 0.00109 | solubility (mole fraction) (in 2-butanone, 318.15 K): 0.00131 | solubility (mole fraction) (in 2-butanone, 323.15 K): 0.00171 | solubility (mole fraction) (in acetone, 283.15 K): 0.000897 | solubility (mole fraction) (in acetone, 288.15 K): 0.000927 | solubility (mole fraction) (in acetone, 293.15 K): 0.0012 | solubility (mole fraction) (in acetone, 298.15 K): 0.00139 | solubility (mole fraction) (in acetone, 303.15 K): 0.00166 | solubility (mole fraction) (in acetone, 308.15 K): 0.00201 | solubility (mole fraction) (in acetone, 313.15 K): 0.00222 | solubility (mole fraction) (in acetone, 318.15 K): 0.00253 | solubility (mole fraction) (in acetone, 323.15 K): 0.00308 | solubility (mole fraction) (in acetonitrile, 283.15 K): 0.000136 | solubility (mole fraction) (in acetonitrile, 288.15 K): 0.000177 | solubility (mole fraction) (in acetonitrile, 293.15 K): 0.000195 | solubility (mole fraction) (in acetonitrile, 298.15 K): 0.000257 | solubility (mole fraction) (in acetonitrile, 303.15 K): 0.000313 | solubility (mole fraction) (in acetonitrile, 308.15 K): 0.000398 | solubility (mole fraction) (in acetonitrile, 313.15 K): 0.000499 | solubility (mole fraction) (in acetonitrile, 318.15 K): 0.000665 | solubility (mole fraction) (in acetonitrile, 323.15 K): 0.000856 | solubility (mole fraction) (in ethanol, 283.15 K): 0.00213 | solubility (mole fraction) (in ethanol, 288.15 K): 0.00253 | solubility (mole fraction) (in ethanol, 293.15 K): 0.0031 | solubility (mole fraction) (in ethanol, 298.15 K): 0.00375 | solubility (mole fraction) (in ethanol, 303.15 K): 0.00454 | solubility (mole fraction) (in ethanol, 308.15 K): 0.00533 | solubility (mole fraction) (in ethanol, 313.15 K): 0.00632 | solubility (mole fraction) (in ethanol, 318.15 K): 0.00776 | solubility (mole fraction) (in ethanol, 323.15 K): 0.0091 | solubility (mole fraction) (in isobutanol, 283.15 K): 0.000686 | solubility (mole fraction) (in isobutanol, 288.15 K): 0.000865 | solubility (mole fraction) (in isobutanol, 293.15 K): 0.000918 | solubility (mole fraction) (in isobutanol, 298.15 K): 0.00106 | solubility (mole fraction) (in isobutanol, 303.15 K): 0.0014 | solubility (mole fraction) (in isobutanol, 308.15 K): 0.0018 | solubility (mole fraction) (in isobutanol, 313.15 K): 0.00236 | solubility (mole fraction) (in isobutanol, 318.15 K): 0.00324 | solubility (mole fraction) (in isobutanol, 323.15 K): 0.00421 | solubility (mole fraction) (in isopropanol, 283.15 K): 0.00136 | solubility (mole fraction) (in isopropanol, 288.15 K): 0.00169 | solubility (mole fraction) (in isopropanol, 293.15 K): 0.00204 | solubility (mole fraction) (in isopropanol, 298.15 K): 0.00252 | solubility (mole fraction) (in isopropanol, 303.15 K): 0.00317 | solubility (mole fraction) (in isopropanol, 308.15 K): 0.00372 | solubility (mole fraction) (in isopropanol, 313.15 K): 0.00433 | solubility (mole fraction) (in isopropanol, 318.15 K): 0.00528 | solubility (mole fraction) (in isopropanol, 323.15 K): 0.00658 | solubility (mole fraction) (in methanol, 283.15 K): 0.00641 | solubility (mole fraction) (in methanol, 288.15 K): 0.0073 | solubility (mole fraction) (in methanol, 293.15 K): 0.00842 | solubility (mole fraction) (in methanol, 298.15 K): 0.00982 | solubility (mole fraction) (in methanol, 303.15 K): 0.0111 | solubility (mole fraction) (in methanol, 308.15 K): 0.013 | solubility (mole fraction) (in methanol, 313.15 K): 0.0153 | solubility (mole fraction) (in methanol, 318.15 K): 0.0172 | solubility (mole fraction) (in methanol, 323.15 K): 0.022 | solubility (mole fraction) (in n-butanol, 283.15 K): 0.000791 | solubility (mole fraction) (in n-butanol, 288.15 K): 0.000839 | solubility (mole fraction) (in n-butanol, 293.15 K): 0.00113 | solubility (mole fraction) (in n-butanol, 298.15 K): 0.00131 | solubility (mole fraction) (in n-butanol, 303.15 K): 0.00172 | solubility (mole fraction) (in n-butanol, 308.15 K): 0.00189 | solubility (mole fraction) (in n-butanol, 313.15 K): 0.00241 | solubility (mole fraction) (in n-butanol, 318.15 K): 0.003 | solubility (mole fraction) (in n-butanol, 323.15 K): 0.00377 | solubility (mole fraction) (in n-pentanol, 283.15 K): 0.000561 | solubility (mole fraction) (in n-pentanol, 288.15 K): 0.000787 | solubility (mole fraction) (in n-pentanol, 293.15 K): 0.00102 | solubility (mole fraction) (in n-pentanol, 298.15 K): 0.00154 | solubility (mole fraction) (in n-pentanol, 303.15 K): 0.00178 | solubility (mole fraction) (in n-pentanol, 308.15 K): 0.00227 | solubility (mole fraction) (in n-pentanol, 313.15 K): 0.00266 | solubility (mole fraction) (in n-pentanol, 318.15 K): 0.00302 | solubility (mole fraction) (in n-pentanol, 323.15 K): 0.00364 | solubility (mole fraction) (in n-propanol, 283.15 K): 0.00105 | solubility (mole fraction) (in n-propanol, 288.15 K): 0.00145 | solubility (mole fraction) (in n-propanol, 293.15 K): 0.00176 | solubility (mole fraction) (in n-propanol, 298.15 K): 0.00195 | solubility (mole fraction) (in n-propanol, 303.15 K): 0.0026 | solubility (mole fraction) (in n-propanol, 308.15 K): 0.00323 | solubility (mole fraction) (in n-propanol, 313.15 K): 0.00386 | solubility (mole fraction) (in n-propanol, 318.15 K): 0.00498 | solubility (mole fraction) (in n-propanol, 323.15 K): 0.00612 | solubility (mole fraction) (in sec-butanol, 283.15 K): 0.00103 | solubility (mole fraction) (in sec-butanol, 288.15 K): 0.00143 | solubility (mole fraction) (in sec-butanol, 293.15 K): 0.0017 | solubility (mole fraction) (in sec-butanol, 298.15 K): 0.00227 | solubility (mole fraction) (in sec-butanol, 303.15 K): 0.00245 | solubility (mole fraction) (in sec-butanol, 308.15 K): 0.00299 | solubility (mole fraction) (in sec-butanol, 313.15 K): 0.00406 | solubility (mole fraction) (in sec-butanol, 318.15 K): 0.00505 | solubility (mole fraction) (in sec-butanol, 323.15 K): 0.00619 | solubility (mole fraction) (in water, 283.15 K): 0.000247 | solubility (mole fraction) (in water, 288.15 K): 0.000288 | solubility (mole fraction) (in water, 293.15 K): 0.000359 | solubility (mole fraction) (in water, 298.15 K): 0.000452 | solubility (mole fraction) (in water, 303.15 K): 0.000492 | solubility (mole fraction) (in water, 308.15 K): 0.000617 | solubility (mole fraction) (in water, 313.15 K): 0.00076 | solubility (mole fraction) (in water, 318.15 K): 0.000834 | solubility (mole fraction) (in water, 323.15 K): 0.00107

Reference: BigSolDB 2.1
